Numbers after ± are expanded uncertainties.
Assay: molar heat capacity at constant pressure
Conditions: 101.33 kPa, Crystal

O[C@H]1[C@H](O)[C@@H](O)[C@H](O)[C@@H](O)[C@H]1O [cis-1,2,3,5-trans-4,6-cyclohexanehexol]
Conditions	molar heat capacity at constant pressure [J/K/mol]
1 K, relaxation calorimetry	0.00189 ± 0.00021
1.926 K, relaxation calorimetry	0.009609 ± 0.0008
2 K, relaxation calorimetry	0.0108 ± 0.00074
2.127 K, relaxation calorimetry	0.01292 ± 0.0011
2.354 K, relaxation calorimetry	0.01758 ± 0.0013
2.61 K, relaxation calorimetry	0.02281 ± 0.0017
2.904 K, relaxation calorimetry	0.03148 ± 0.0023
3 K, relaxation calorimetry	0.03479 ± 0.0023
3.219 K, relaxation calorimetry	0.04281 ± 0.0031
3.569 K, relaxation calorimetry	0.0586 ± 0.0042
3.959 K, relaxation calorimetry	0.08072 ± 0.0058
4 K, relaxation calorimetry	0.08367 ± 0.0053
4.391 K, relaxation calorimetry	0.1121 ± 0.008
4.872 K, relaxation calorimetry	0.1562 ± 0.011
5 K, relaxation calorimetry	0.1693 ± 0.011
5.405 K, relaxation calorimetry	0.2182 ± 0.015
5.998 K, relaxation calorimetry	0.3056 ± 0.021
6 K, relaxation calorimetry	0.3048 ± 0.019
6.654 K, relaxation calorimetry	0.4273 ± 0.03
7 K, relaxation calorimetry	0.5031 ± 0.031
7.388 K, relaxation calorimetry	0.5992 ± 0.042
8 K, relaxation calorimetry	0.7731 ± 0.048
8.198 K, relaxation calorimetry	0.8347 ± 0.058
9 K, relaxation calorimetry	1.113 ± 0.069
9.101 K, relaxation calorimetry	1.15 ± 0.08
10 K, relaxation calorimetry	1.523 ± 0.094
10.15 K, relaxation calorimetry	1.591 ± 0.11
11.25 K, relaxation calorimetry	2.131 ± 0.15
12.48 K, relaxation calorimetry	2.827 ± 0.2
13.85 K, relaxation calorimetry	3.674 ± 0.26
15 K, relaxation calorimetry	4.447 ± 0.27
15.39 K, relaxation calorimetry	4.714 ± 0.33
17.07 K, relaxation calorimetry	5.945 ± 0.41
18.96 K, relaxation calorimetry	7.393 ± 0.52
20 K, relaxation calorimetry	8.193 ± 0.5
21.04 K, relaxation calorimetry	8.992 ± 0.37
23.37 K, relaxation calorimetry	10.83 ± 0.44
25 K, relaxation calorimetry	12.09 ± 0.74
25.95 K, relaxation calorimetry	12.77 ± 0.52
28.81 K, relaxation calorimetry	14.98 ± 0.61
30 K, relaxation calorimetry	15.9 ± 0.97
32 K, relaxation calorimetry	17.42 ± 0.71
35 K, relaxation calorimetry	19.73 ± 1.2
35.5 K, relaxation calorimetry	20.13 ± 0.82
39.37 K, relaxation calorimetry	23.3 ± 0.95
40 K, relaxation calorimetry	23.68 ± 1.4
43.71 K, relaxation calorimetry	26.66 ± 1.1
45 K, relaxation calorimetry	27.69 ± 1.7
48.5 K, relaxation calorimetry	30.26 ± 1.2
50 K, relaxation calorimetry	31.58 ± 1.9
53.84 K, relaxation calorimetry	34.36 ± 1.4
55 K, relaxation calorimetry	35.27 ± 2.2
59.75 K, relaxation calorimetry	39.03 ± 1.6
60 K, relaxation calorimetry	39.12 ± 2.4
65 K, relaxation calorimetry	43.04 ± 2.6
66.32 K, relaxation calorimetry	44.21 ± 1.8
70 K, relaxation calorimetry	47.02 ± 2.9
73.64 K, relaxation calorimetry	49.9 ± 2
75 K, relaxation calorimetry	51.04 ± 3.1
80 K, relaxation calorimetry	55.09 ± 3.4
81.73 K, relaxation calorimetry	56.7 ± 2.3
85 K, relaxation calorimetry	59.15 ± 3.6
90 K, relaxation calorimetry	63.21 ± 3.9
90.71 K, relaxation calorimetry	63.72 ± 2.6
95 K, relaxation calorimetry	67.25 ± 4.1
100 K, relaxation calorimetry	71.28 ± 4.4
100.66 K, relaxation calorimetry	71.12 ± 2.9
110 K, relaxation calorimetry	79.22 ± 4.9
110.79 K, relaxation calorimetry	79.63 ± 3.2
120 K, relaxation calorimetry	87.03 ± 5.3
120.83 K, relaxation calorimetry	87.98 ± 3.6
130 K, relaxation calorimetry	94.69 ± 5.8
130.89 K, relaxation calorimetry	95.77 ± 3.9
140 K, relaxation calorimetry	102.22 ± 6.3
141.02 K, relaxation calorimetry	103.28 ± 4.2
150 K, relaxation calorimetry	109.64 ± 6.7
151.12 K, relaxation calorimetry	110.61 ± 4.5
160 K, relaxation calorimetry	116.97 ± 7.2
161.24 K, relaxation calorimetry	117.92 ± 4.8
170 K, relaxation calorimetry	124.22 ± 7.6
171.29 K, relaxation calorimetry	125.13 ± 5.1
180 K, relaxation calorimetry	131.43 ± 8.1
181.39 K, relaxation calorimetry	132.46 ± 5.4
188.15 K, Small sample (50 mg) DSC	132.1 ± 19
189.15 K, Small sample (50 mg) DSC	133.01 ± 19
190 K, relaxation calorimetry	138.61 ± 8.5
190.15 K, Small sample (50 mg) DSC	134.04 ± 19
191.15 K, Small sample (50 mg) DSC	134.87 ± 19
191.48 K, relaxation calorimetry	139.61 ± 5.7
192.15 K, Small sample (50 mg) DSC	135.65 ± 19
193.15 K, Small sample (50 mg) DSC	136.44 ± 19
194.15 K, Small sample (50 mg) DSC	137.52 ± 19
195.15 K, Small sample (50 mg) DSC	138.44 ± 19
196.15 K, Small sample (50 mg) DSC	139.45 ± 20
197.15 K, Small sample (50 mg) DSC	140.42 ± 20
198.15 K, Small sample (50 mg) DSC	141.25 ± 20
199.15 K, Small sample (50 mg) DSC	142.04 ± 20
200 K, relaxation calorimetry	145.78 ± 8.9
200.15 K, Small sample (50 mg) DSC	142.99 ± 20
201.15 K, Small sample (50 mg) DSC	143.81 ± 20
201.58 K, relaxation calorimetry	146.36 ± 6
202.15 K, Small sample (50 mg) DSC	144.76 ± 20
203.15 K, Small sample (50 mg) DSC	145.49 ± 20
204.15 K, Small sample (50 mg) DSC	146.25 ± 21
205.15 K, Small sample (50 mg) DSC	147.12 ± 21
206.15 K, Small sample (50 mg) DSC	147.9 ± 21
207.15 K, Small sample (50 mg) DSC	148.76 ± 21
208.15 K, Small sample (50 mg) DSC	149.37 ± 21
209.15 K, Small sample (50 mg) DSC	150.17 ± 21
210 K, relaxation calorimetry	152.96 ± 9.4
210.15 K, Small sample (50 mg) DSC	150.93 ± 21
211.15 K, Small sample (50 mg) DSC	151.82 ± 21
211.7 K, relaxation calorimetry	153.74 ± 6.2
212.15 K, Small sample (50 mg) DSC	152.59 ± 21
213.15 K, Small sample (50 mg) DSC	153.21 ± 22
214.15 K, Small sample (50 mg) DSC	154.05 ± 22
215.15 K, Small sample (50 mg) DSC	154.79 ± 22
216.15 K, Small sample (50 mg) DSC	155.5 ± 22
217.15 K, Small sample (50 mg) DSC	156.37 ± 22

— the NIST ThermoML archive (doi:10.1016/j.jct.2017.08.004)
